Values of other authors in patent publication US20210319872A1, “DRUG AND DEVICE COMBINATION PRODUCTS WITH IMPROVED SAFETY AND EFFICACY PROFILES” (priority 2016, published 2021).
Read-outs that look alike come from different tables or passages of the source.

[1] = subependymal giant cell astrocytoma

CCCN(CCC)CCc1cccc2c1CC(=O)N2 [Ropinirole (Requip)]
Abdominal pain (in vivo): Gastrointestinal: Abdominal pain (6% to 7%), Constipation (4% to
Constipation (in vivo): Gastrointestinal: Abdominal pain (6% to 7%), Constipation (4% to
Dyskinesia (in vivo): syndrome, 11%), Dyskinesia (13% to 34%), Headache (6%),
Fatigue (in vivo): Other: Fatigue (8% to 11%)
Hallucinations (in vivo): Psychiatric: Hallucinations (5% to 10%)
Headache (in vivo): syndrome, 11%), Dyskinesia (13% to 34%), Headache (6%),
Hypotension (in vivo): Cardiovascular: Hypotension (2% to 25%), Orthostatic hypotension
Nausea (in vivo): 5%), Nausea (11% to 60%), Vomiting (7% to 12%)
Orthostatic hypotension (in vivo): (Up to 23%)
Syncope (in vivo): disease, 1% to 12%; restless leg syndrome, 1%)
Vomiting (in vivo): 5%), Nausea (11% to 60%), Vomiting (7% to 12%)

CO[C@H]1C[C@@H]2CC[C@@H](C)[C@@](O)(O2)C(=O)C(=O)N2CCCC[C@H]2C(=O)O[C@H]([C@H](C)C[C@@H]2CC[C@@H](OCCO)[C@H](OC)C2)CC(=O)[C@H](C)/C=C(\C)[C@@H](O)[C@@H](OC)C(=O)[C@H](C)C[C@H](C)/C=C/C=C/C=C/1C [Afinitor]
Pulmonary embolism (PNET): 2.5%
Angioedema (Transplant): Other: Angioedema (Transplant, up to 6.8%), Sepsis (tumors less
Hemolytic uremic syndrome (Transplant): Renal: Hemolytic uremic syndrome (Transplant, less than 1%),
Pericardial effusion (Transplant): Cardiovascular: Pericardial effusion (Transplant, less than 1%)
Thrombocytopenia, All grades (Transplant): ≤ 10%
Thrombotic microangiopathy (Transplant): < 1%), Thrombotic thrombocytopenic purpura (Transplant, less than
Thrombotic thrombocytopenic purpura (Transplant): < 1%
Hypoalbuminemia (breast cancer): Hypoalbuminemia (breast cancer, 33%), Hypophosphatemia
Interstitial lung disease (in vivo): Respiratory: Interstitial lung disease (Less than 1%), Non-
Non-infectious pneumonia (in vivo): ≤ 19%
Anemia, All grades (kidney transplant): transplant, 26%), Decreased lymphocyte count, all grades (tumors,
Constipation (kidney transplant): 38%
Cough (kidney transplant): 7%
Diarrhea (kidney transplant): kidney transplant, 19%; liver transplant, 19%), Nausea (tumors,
Dyslipidemia (kidney transplant): Endocrine metabolic: Dyslipidemia (kidney transplant, 15%),
Fatigue (kidney transplant): 9%
Fever (kidney transplant): 19%
Hypercholesterolemia (kidney transplant): 17%
Hyperlipidemia (kidney transplant): 21%
Hypertension (kidney transplant): 30%
Hypophosphatemia (kidney transplant): 13%
Impaired wound healing (kidney transplant): Immunologic: Impaired wound healing (kidney transplant, 35%;
Increased glucose level, All grades (kidney transplant): 12%
Infectious disease (kidney transplant): 62%
Leukopenia (kidney transplant): 3%
Nausea (kidney transplant): 29%
Peripheral edema (kidney transplant): 45%
Serum creatinine raised (kidney transplant): 18%
Stomatitis (kidney transplant): 8%
Upper respiratory infection (kidney transplant): transplant, 16%)
Urinary tract infectious disease (kidney transplant): 16%; kidney transplant, 22%)
Vomiting (kidney transplant): 15%
Serious side effect, Respiratory (listed without frequency): Pneumocystis pneumonia
Diarrhea (liver transplant): kidney transplant, 19%; liver transplant, 19%), Nausea (tumors,
Fever (liver transplant): transplant, 13%)
Hyperlipidemia (liver transplant): 24%
Hypertension (liver transplant): 17%
Impaired wound healing (liver transplant): liver transplant, 11%)
Infectious disease (liver transplant): 50%
Leukopenia (liver transplant): 12%
Nausea (liver transplant): 14%
Peripheral edema (liver transplant): 18%
Amenorrhea (renal angiomyolipoma): Reproductive: Amenorrhea (renal angiomyolipoma, 15%),
Menorrhagia (renal angiomyolipoma): angiomyolipoma, 10%)
Otitis media (renal angiomyolipoma): Otic: Otitis media (renal angiomyolipoma, 6%)
Seizure (renal angiomyolipoma): Neurologic: Seizure (renal angiomyolipoma, 5%)
Hemorrhage (renal cell carcinoma): 3%
Pneumonia (renal cell carcinoma): 6%
Renal failure (renal cell carcinoma): Renal failure (renal cell carcinoma, 3%), Thrombosis of renal
Mental disorder [1]: astrocytoma, 21%)
Partial thromboplastin time increased [1]: giant cell astrocytoma, 72%), Thrombocytopenia, All grades
Pleural effusion (tumors): 7%
Sepsis (tumors): < 1%
